This test has as its system LG0703-F948-PDC complex spheroid viability. Description: Anticancer human tumor LG0703-F948-PDC patient-derived lung adenocarcinoma cell line growth inhibition [RAS]. The following applies: for viability, T/C: stronger effect = lower value. The gist of the method:
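Tumour cells grown as complex spheroids with HUVEC endothelial cells and mesenchymal stem cells, treated with RAS pathway inhibitor combinations. Each agent spans half-log steps from near clinical Cmax, or 10 microM where Cmax is unknown.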

The mark [1] stands for this setting: curve of first compound, second compound 0.0316 µM.
The mark [2] stands for this setting: curve of first compound, second compound 0.1 µM.
Setting [3] is: curve of first compound, second compound 0.316 µM.
Setting [4] is: curve of first compound, second compound 1 µM.
Where [5] appears, read: second compound 0.0316 µM, first compound 0.0316 µM.
[6] abbreviates: second compound 0.0316 µM, first compound 0.1 µM.
The mark [7] stands for this setting: second compound 0.0316 µM, first compound 0.316 µM.
Setting [8] is: second compound 0.0316 µM, first compound 1 µM.
Where [9] appears, read: second compound 0.1 µM, first compound 0.0316 µM.
The mark [10] stands for this setting: second compound 0.1 µM, first compound 0.1 µM.
The mark [11] stands for this setting: second compound 0.1 µM, first compound 0.316 µM.
The mark [12] stands for this setting: second compound 0.1 µM, first compound 1 µM.
The mark [13] stands for this setting: second compound 0.316 µM, first compound 0.0316 µM.
Setting [14] is: second compound 0.316 µM, first compound 0.1 µM.
Where [15] appears, read: second compound 0.316 µM, first compound 0.316 µM.
Setting [16] is: second compound 0.316 µM, first compound 1 µM.
The mark [17] stands for this setting: second compound 1 µM, first compound 0.0316 µM.
[18] abbreviates: second compound 1 µM, first compound 0.1 µM.
Setting [19] is: second compound 1 µM, first compound 0.316 µM.
The mark [20] stands for this setting: second compound 1 µM, first compound 1 µM.

“And” between values parts separate entries of the source, which are not always exact repeats. Equal entries are not always repeated.
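Further: spheroids exposed to agents for 7 days.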
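Wherever viability, T/C is given: 100% = DMSO vehicle wells.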

One may read the IC50 as the concentration at which inhibition is half-maximal. What is called viability, T/C is the ratio of treated to control. As to `CC(Nc1ccc2c(c1)OCCn1cc(N3C(=O)OCC3C(F)F)nc1-2)C(N)=O` (stereo not drawn) + C=CC(=O)N1CCN(c2nc(OCC3CCCN3C)nc3c(F)c(-c4nc(N)cc(C)c4C(F)(F)F)c(Cl)cc23)C(C)C1, the IC50 (curve of first compound, second compound 0.00316 µM) came to 1150 nM; the IC50 (curve of first compound, second compound 0.01 µM) worked out at 882 nM; the IC50 under setting [1] turned out to be 987 nM; the IC50 under setting [2] was 967 nM; the IC50 under setting [3] was 962 nM; the IC50 under setting [4] is 1190 nM. Moreover, the viability, T/C was 91.8% (second compound 0.00316 µM, first compound 0.0316 µM); 84.8% (second compound 0.00316 µM, first compound 0.1 µM); 64.5% (second compound 0.00316 µM, first compound 0.316 µM); 53.5% (second compound 0.00316 µM, first compound 1 µM); 34.7% (second compound 0.00316 µM, first compound 3.16 µM); 14.8% (second compound 0.00316 µM, first compound 10 µM). Also, the viability, T/C is, setting by setting: (second compound 0.01 µM, first compound 0.0316 µM) 99.9%; (second compound 0.01 µM, first compound 0.1 µM) 83.3%; (second compound 0.01 µM, first compound 0.316 µM) 62.2%; (second compound 0.01 µM, first compound 1 µM) 49.5%; (second compound 0.01 µM, first compound 3.16 µM) 32.9%; (second compound 0.01 µM, first compound 10 µM) 14.2%. Also, the viability, T/C is 98.9% under setting [5]; 86.7% under setting [6]; 66.9% under setting [7]; 47.4% under setting [8]; 34.6% (second compound 0.0316 µM, first compound 3.16 µM); 13.5% (second compound 0.0316 µM, first compound 10 µM). Also, the viability, T/C reads like this: under setting [9], 105%; under setting [10], 86.3%; under setting [11], 63.9%; under setting [12], 50.9%; (second compound 0.1 µM, first compound 3.16 µM) 35.2%; (second compound 0.1 µM, first compound 10 µM) 12.9%. In addition, the viability, T/C under setting [13] was 113%; the viability, T/C under setting [14] was 86.6%; the viability, T/C under setting [15] was 68%; the viability, T/C under setting [16] was 44.3%; the viability, T/C (second compound 0.316 µM, first compound 3.16 µM) was 34.4%; the viability, T/C (second compound 0.316 µM, first compound 10 µM) is 14.8%. The viability, T/C runs as follows: under setting [17], 108%; under setting [18], 96.5%; under setting [19], 69.2%; under setting [20], 53.5%; (second compound 1 µM, first compound 3.16 µM) 36%; (second compound 1 µM, first compound 10 µM) 11.7%.
Take `Cc1nc(N2CCC3(CC2)COC(C)C3N)c(CO)nc1Sc1ccnc(N)c1Cl` (stereo not drawn): the viability, T/C (compound 0.0316 µM) was 91.6% and 86.5% and 84.2%; the viability, T/C (compound 0.1 µM) is 68.1% and 83.2% and 66.4%; the viability, T/C (compound 0.316 µM) is 50.8% and 48.3% and 51.7%; the viability, T/C (compound 1 µM) is 36.9% and 35.6% and 34.5%; the viability, T/C (compound 3.16 µM) is 22% and 21.2% and 25.2%; the viability, T/C (compound 10 µM) is 11.4% and 12.8% and 12.1%. For the same compound, the IC50 (curve of compound) was 348 nM and 399 nM and 337 nM.
With `C#Cc1c(F)ccc2cc(O)cc(-c3ncc4c(N5CC6CCC(C5)N6)nc(OCC56CCCN5CC(F)C6)nc4c3F)c12` (stereo not drawn), the viability, T/C is, setting by setting: (compound 0.1 µM) 98.8% [middle of 8 runs]; (compound 0.316 µM) 85.7% [middle of 8 runs]; (compound 3.16 µM) 61% [middle of 8 runs]; (compound 10 µM) 56.6% [middle of 8 runs]. Also, the IC50 (compound alone, run of 09/09/2024) is > 10000 nM and 9290 nM.
Turning to `C=CC(=O)N1CCN(c2nc(OCC3CCCN3C)nc3c(F)c(-c4nc(N)cc(C)c4C(F)(F)F)c(Cl)cc23)C(C)C1` (stereo not drawn) + C#Cc1c(F)ccc2cc(O)cc(-c3ncc4c(N5CC6CCC(C5)N6)nc(OCC56CCCN5CC(F)C6)nc4c3F)c12, the IC50 by setting is: under setting [1], more than 1000 nM; under setting [2], more than 1000 nM; under setting [3], more than 1000 nM; under setting [4], more than 1000 nM; (curve of first compound, second compound 3.16 µM) more than 1000 nM; (curve of first compound, second compound 10 µM) 197 nM. The viability, T/C is 127% (second compound 0.0316 µM, first compound 0.00316 µM); 87.8% (second compound 0.0316 µM, first compound 0.01 µM); 111% under setting [5]; 120% under setting [6]; 109% under setting [7]; 85.2% under setting [8]. For the same compound, the viability, T/C (second compound 0.1 µM, first compound 0.00316 µM) is 98.7%; the viability, T/C (second compound 0.1 µM, first compound 0.01 µM) is 110%; the viability, T/C under setting [9] was 94.9%; the viability, T/C under setting [10] is 104%; the viability, T/C under setting [11] was 109%; the viability, T/C under setting [12] is 97.8%. Moreover, the viability, T/C (second compound 0.316 µM, first compound 0.00316 µM) is 89.5%; the viability, T/C (second compound 0.316 µM, first compound 0.01 µM) was 82.2%; the viability, T/C under setting [13] is 86.1%; the viability, T/C under setting [14] is 72.6%; the viability, T/C under setting [15] is 82%; the viability, T/C under setting [16] is 84.6%. For the same compound, the viability, T/C is, setting by setting: (second compound 1 µM, first compound 0.00316 µM) 63.7%; (second compound 1 µM, first compound 0.01 µM) 76.6%; under setting [17], 79.3%; under setting [18], 66.2%; under setting [19], 73.9%; under setting [20], 75%. The viability, T/C reads like this: (second compound 3.16 µM, first compound 0.00316 µM) 61.8%; (second compound 3.16 µM, first compound 0.01 µM) 57.8%; (second compound 3.16 µM, first compound 0.0316 µM) 75.3%; (second compound 3.16 µM, first compound 0.1 µM) 63.6%; (second compound 3.16 µM, first compound 0.316 µM) 59.3%; (second compound 3.16 µM, first compound 1 µM) 62.9%. The viability, T/C (second compound 10 µM, first compound 0.00316 µM) is 51.9%; the viability, T/C (second compound 10 µM, first compound 0.01 µM) is 54.2%; the viability, T/C (second compound 10 µM, first compound 0.0316 µM) was 54.1%; the viability, T/C (second compound 10 µM, first compound 0.1 µM) is 47.5%; the viability, T/C (second compound 10 µM, first compound 0.316 µM) was 50.7%; the viability, T/C (second compound 10 µM, first compound 1 µM) was 47%.
Regarding `CC(=O)OC12COC1CC(O)C1(C)C(=O)C(O)C3=C(C)C(OC(=O)C(O)C(NC(=O)OC(C)(C)C)c4ccccc4)CC(O)(C(OC(=O)c4ccccc4)C21)C3(C)C` (stereo not drawn), the viability, T/C (compound 0.0316 µM) is 37.1% [middle of 4 runs]; the viability, T/C (compound 0.1 µM) is 33.9% [middle of 4 runs]; the viability, T/C (compound 0.316 µM) was 39.8% [middle of 4 runs]; the viability, T/C (compound 1 µM) was 39.7% [middle of 4 runs]; the viability, T/C (compound 3.16 µM) was 43.2% [middle of 4 runs]; the viability, T/C (compound 10 µM) is 44.4% [middle of 4 runs]. Besides, the IC50 (curve of compound) is less than 31.6 nM.

The record behind these values is PubChem BioAssay AID2060890 (Molecular Pharmacology Branch, DTP, NCI, 2025).
